Patent publication US20150141381A1, “TETRACYCLINE COMPOUNDS HAVING TARGET THERAPEUTIC ACTIVITIES” (Paratek Pharmaceuticals, Inc., priority 2001, published 2015)
Where two headings read alike, the source gives them in different places.

Experiments:
S. aureus RN450 = assay: In Vitro Anti-Bacterial Activity Assay (MIC), gram positive; type: cell-based; settings: Staphylococcus aureus, RN450, 18 h
E. coli mL308 225 = assay: In Vitro Anti-Bacterial Activity Assay (MIC), gram negative; type: cell-based; settings: Escherichia coli, ML308225, 18 h
[1] = MIC class, Table 3 (Continued), read-out: Gram+ activity
[2] = MIC class, Table 3 (Continued), read-out: Gram− activity
[3] = MIC class, Table 3, read-out: Antibiotic Activity Gram +
[4] = MIC class, Table 3, read-out: Antibiotic Activity Gram −
[5] = gram positive bacteria, read-out: Antibiotic Activity Gram + (MIC)
[6] = gram negative bacteria, read-out: Antibiotic Activity Gram − (MIC)

| Compound | MIC (S. aureus RN450; [3]) [µg/mL] | MIC (E. coli mL308 225; [4]) [µg/mL] | MIC (S. aureus RN450; [5]) [µg/mL] | MIC (E. coli mL308 225; [6]) [µg/mL] | also measured |
| --- | --- | --- | --- | --- | --- |
| CN(C)[C@@H]1C(O)=C(C(N)=O)C(=O)[C@@]2(O)C(O)=C3C(=O)c4c(O)ccc(-c5ccco5)c4C[C@H]3C[C@@H]12 | – | – | – | – | MIC (S. aureus RN450; [1]): < 4 µg/mL; MIC (E. coli mL308 225; [2]): < 4 µg/mL |
| COC(CN(Cc1ccc(O)c2c1C[C@H]1C[C@H]3[C@@H](N(C)C)C(O)=C(C(N)=O)C(=O)[C@@]3(O)C(O)=C1C2=O)CC(OC)OC)OC [KD] | < 4 | > 4 | – | – | – |
| Cc1cc(C)cc(-c2cc(N(C)C)c3c(c2O)C(=O)C2=C(O)[C@]4(O)C(=O)C(C(N)=O)=C(O)[C@@H](N(C)C)[C@@H]4C[C@@H]2C3)c1 | – | – | – | – | MIC (S. aureus RN450; [1]): < 4 µg/mL; MIC (E. coli mL308 225; [2]): < 4 µg/mL |
| CN(C)c1cc(CNCc2cc(F)c(F)c(F)c2)c(O)c2c1C[C@H]1C[C@H]3[C@H](N(C)C)C(O)=C(C(N)=O)C(=O)[C@@]3(O)C(O)=C1C2=O | – | – | < 4 | < 4 | – |
| CC(=O)Nc1ccc(C#Cc2ccc(O)c3c2C[C@H]2C[C@H]4[C@H](N(C)C)C(O)=C(C(N)=O)C(=O)[C@@]4(O)C(O)=C2C3=O)cc1 [CO] | < 4 | > 4 | – | – | – |
| C[C@H]1c2ccc(NC3CCN(C)CC3)c(O)c2C(=O)C2=C(O)[C@]3(O)C(=O)C(C(N)=O)=C(O)[C@@H](N(C)C)[C@@H]3[C@@H](O)[C@@H]21 [JF] | < 4 | < 4 | – | – | – |
| CN(C)c1cc(NC(=O)Nc2ccccc2)c(O)c2c1C[C@H]1C[C@H]3C(N(C)C)C(O)=C(C(N)=O)C(=O)[C@@]3(O)C(O)=C1C2=O (some centres unmarked) | – | – | – | – | MIC (S. aureus RN450; [1]): < 4 µg/mL; MIC (E. coli mL308 225; [2]): < 4 µg/mL |
| CN(C)c1cc(CNCc2ccc(C(=O)O)cc2)c(O)c2c1C[C@H]1C[C@H]3[C@H](N(C)C)C(O)=C(C(N)=O)C(=O)[C@@]3(O)C(O)=C1C2=O | – | – | > 4 | > 4 | – |
| CN(Cc1cc(N(C)C)c2c(c1O)C(=O)C1=C(O)[C@]3(O)C(=O)C(C(N)=O)=C(O)[C@@H](N(C)C)[C@@H]3C[C@@H]1C2)CC(C)(C)C | – | – | < 4 | < 4 | – |
| CN(C)[C@@H]1C(O)=C(C(N)=O)C(=O)[C@@]2(O)C(O)=C3C(=O)c4c(O)c(CN5CCCCC5)cc(-c5ccoc5)c4C[C@H]3C[C@@H]12 [PQ] | < 4 | < 4 | – | – | – |
| CN(C)C(=O)/C=C/c1ccc(O)c2c1C[C@H]1C[C@H]3[C@H](N(C)C)C(O)=C(C(N)=O)C(=O)[C@@]3(O)C(O)=C1C2=O [AQ] | < 4 | < 4 | – | – | – |
| CN(C)c1cc(CNC(=O)C(Cc2ccccc2)N(C)C)c(O)c2c1C[C@H]1C[C@H]3[C@H](N(C)C)C(O)=C(C(N)=O)C(=O)[C@@]3(O)C(O)=C1C2=O (some centres unmarked) | – | – | < 4 | > 4 | – |
| COCC(C)CN(C)Cc1cc(N(C)C)c2c(c1O)C(=O)C1=C(O)[C@]3(O)C(=O)C(C(N)=O)=C(O)[C@@H](N(C)C)[C@@H]3C[C@@H]1C2 (some centres unmarked) | – | – | < 4 | > 4 | – |
| CN(C)[C@@H]1C(O)=C(C(N)=O)C(=O)[C@@]2(O)C(O)=C3C(=O)c4c(O)ccc(C(=O)Cc5ccccn5)c4C[C@H]3C[C@@H]12 [EL] | < 4 | < 4 | – | – | – |
| CC1CCN(Cc2cc(N(C)C)c3c(c2O)C(=O)C2=C(O)[C@]4(O)C(=O)C(C(N)=O)=C(O)[C@@H](N(C)C)[C@@H]4C[C@@H]2C3)CC1 | – | – | < 4 | < 4 | – |
| CN(C)c1cc(CN2CCC3CCCCC3C2)c(O)c2c1C[C@H]1C[C@H]3[C@H](N(C)C)C(O)=C(C(N)=O)C(=O)[C@@]3(O)C(O)=C1C2=O (some centres unmarked) | – | – | < 4 | < 4 | – |
| CN(C)c1cc(NCc2cc[nH]n2)c(O)c2c1C[C@H]1C[C@H]3[C@H](N(C)C)C(O)=C(C(N)=O)C(=O)[C@@]3(O)C(O)=C1C2=O | – | – | > 4 | > 4 | – |

| Compound | MIC (S. aureus RN450; [3]) [µg/mL] | MIC (E. coli mL308 225; [4]) [µg/mL] | MIC (S. aureus RN450; [5]) [µg/mL] | MIC (E. coli mL308 225; [6]) [µg/mL] | also measured |
| --- | --- | --- | --- | --- | --- |
| CN(C)c1cc(CNCc2ccc(OC(F)(F)F)cc2)c(O)c2c1C[C@H]1C[C@H]3[C@H](N(C)C)C(O)=C(C(N)=O)C(=O)[C@@]3(O)C(O)=C1C2=O [PJ] | < 4 | > 4 | – | – | – |
| CN(C)[C@@H]1C(O)=C(C(N)=O)C(=O)[C@@]2(O)C(O)=C3C(=O)c4c(O)ccc(-c5cnccn5)c4C[C@H]3C[C@@H]12 | – | – | < 4 | < 4 | – |
| CN(C)[C@@H]1C(O)=C(C(N)=O)C(=O)[C@@]2(O)C(O)=C3C(=O)c4c(O)ccc(C#CC5CCCCC5)c4C[C@H]3C[C@@H]12 | – | – | – | – | MIC (S. aureus RN450; [1]): < 4 µg/mL; MIC (E. coli mL308 225; [2]): < 4 µg/mL |
| Cc1ccc(CCc2ccc(O)c3c2C[C@H]2C[C@H]4[C@H](N(C)C)C(O)=C(C(N)=O)C(=O)[C@@]4(O)C(O)=C2C3=O)cc1 | – | – | – | – | MIC (S. aureus RN450; [1]): < 4 µg/mL; MIC (E. coli mL308 225; [2]): < 4 µg/mL |
| CN(C)c1cc(CN2CCOCC2)c(O)c2c1C[C@H]1C[C@H]3[C@H](N(C)C)C(O)=C(C(N)=O)C(=O)[C@@]3(O)C(O)=C1C2=O | – | – | < 4 | > 4 | – |
| CCCN1CCC(Nc2ccc3c(c2O)C(=O)C2=C(O)[C@]4(O)C(=O)C(C(N)=O)=C(O)[C@@H](N(C)C)[C@@H]4[C@@H](O)[C@@H]2[C@H]3C)CC1 [KX] | < 4 | < 4 | – | – | – |
| CCOC(=O)/C=C/c1cc(N(C)C)c2c(c1O)C(=O)C1=C(O)[C@]3(O)C(=O)C(C(N)=O)=C(O)[C@@H](N(C)C)[C@@H]3C[C@@H]1C2 | – | – | < 4 | > 4 | – |
| CN(C)c1cc(N2CCCCC2)c(O)c2c1C[C@H]1C[C@H]3[C@H](N(C)C)C(O)=C(C(N)=O)C(=O)[C@@]3(O)C(O)=C1C2=O [NK] | > 4 | > 4 | – | – | – |
| CN(C)[C@@H]1C(O)=C(C(N)=O)C(=O)[C@@]2(O)C(O)=C3C(=O)c4c(O)ccc(C(=O)C(=O)N5CCOCC5)c4C[C@H]3C[C@@H]12 | – | – | < 4 | > 4 | – |
| CC(=O)c1ccc(-c2ccc3c(c2O)C(=O)C2=C(O)[C@]4(O)C(=O)C(C(N)=O)=C(O)[C@@H](N(C)C)[C@@H]4[C@@H](O)[C@@H]2[C@H]3C)cc1 | – | – | < 4 | < 4 | – |
| CN(C)c1cc(-c2cccs2)c(O)c2c1C[C@H]1C[C@H]3[C@H](N(C)C)C(O)=C(C(N)=O)C(=O)[C@@]3(O)C(O)=C1C2=O [W] | < 4 | > 4 | – | – | – |
| CN(C)[C@@H]1C(O)=C(C(N)=O)C(=O)[C@@]2(O)C(O)=C3C(=O)c4c(ccc(NC(=O)N5CCOCC5)c4O)C[C@H]3C[C@@H]12 [IL] | > 4 | > 4 | – | – | – |
| CN(C)c1cc(CNCCCC(F)(F)F)c(O)c2c1C[C@H]1C[C@H]3[C@H](N(C)C)C(O)=C(C(N)=O)C(=O)[C@@]3(O)C(O)=C1C2=O | – | – | < 4 | < 4 | – |
| CN(C)[C@@H]1C(O)=C(C(N)=O)C(=O)[C@@]2(O)C(O)=C3C(=O)c4c(O)ccc(-c5cnc(N)nc5)c4C[C@H]3C[C@@H]12 [PF] | < 4 | < 4 | – | – | – |
| CCOc1ccc(-c2ccc(O)c3c2C[C@H]2C[C@H]4[C@H](N(C)C)C(O)=C(C(N)=O)C(=O)[C@@]4(O)C(O)=C2C3=O)cc1CN [GJ] | < 4 | < 4 | – | – | – |
| CC(=O)NCc1cc(N(C)C)c2c(c1O)C(=O)C1=C(O)[C@]3(O)C(=O)C(C(N)=O)=C(O)C(N(C)C)[C@@H]3C[C@@H]1C2 (some centres unmarked) [DR] | < 4 | > 4 | – | – | – |
| C[C@H]1c2ccc(N3CCOCC3)c(O)c2C(=O)C2=C(O)[C@]3(O)C(=O)C(C(N)=O)=C(O)[C@@H](N(C)C)[C@@H]3[C@@H](O)[C@@H]21 | – | – | > 4 | > 4 | – |
